Test system: Tel22 (DNA, G4) AGGGTTAGGGTTAGGGTTAGGG
Assay: CD melting, SVD global fit
Conditions: 150 mM KCl; 50 mM phosphate, 0.3 mM EDTA, pH 7; 60 μM ligand, 30 μM DNA; not irradiated; 3–4

- Tm: ~ 3 degrees
Compound: C[n+]1ccc(-c2c3nc(c(-c4cc[n+](C)cc4)c4ccc([nH]4)c(-c4cc[n+](C)cc4)c4nc(c(-c5cc[n+](C)cc5)c5ccc2[nH]5)C=C4)C=C3)cc1

— article PMC10218862 (2023)
